Assay results as given in US20060069132A1, “Azolecarboxamide herbicides” (priority 2004, published 2006).

Columns and labels:
corn = experiment: Test B pre-/postemergence herbicide test; format: in vivo, Zea mays; settings: for Corn plant response rating: postemergence
How it was run: (§1)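 Flooded paddy rice and barnyardgrass were treated at the 2-leaf stage; upland plantings received compound either on sown seed or on 1- to 4-leaf seedlings. All were kept 13–15 days in a greenhouse and scored visually, 0–100, relative to untreated plants.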

large crabgrass = experiment: Test B pre-/postemergence herbicide test; format: in vivo, Digitaria sanguinalis; settings: for Crabgrass, Large plant response rating: postemergence
How it was run: as §1

morningglory = experiment: Test B pre-/postemergence herbicide test; format: in vivo, Ipomoea coccinea; settings: for Morningglory plant response rating: postemergence
How it was run: (§2)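 Visual rating, 0 (no effect) to 100 (complete control), versus untreated controls after 13–15 d in greenhouse. Pre- and postemergence applications (postemergence plants 2–18 cm, 1–4 leaves); flooded paddy arm at 2-leaf stage. Compounds in non-phytotoxic solvent plus surfactant.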

[1] = system: smallflower umbrella sedge; experiment: Test C flooded paddy test; format: in vivo, Cyperus difformis
Surinam grass = experiment: Test B pre-/postemergence herbicide test; format: in vivo, Urochloa decumbens; settings: for Surinam Grass plant response rating: postemergence
How it was run: as §1

rice [2] = experiment: Test C flooded paddy test; format: in vivo, Oryza sativa
How it was run: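 Postemergence sprays applied to plants 2 to 18 cm tall (1- to 4-leaf stage); paddy species grown to 2-leaf stage under flooding. After 12 to 14 days in greenhouse, visual rating versus untreated controls on 0–100 scale (0 no effect, 100 complete control).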

rice [3] = experiment: Test B pre-/postemergence herbicide test; format: in vivo, Oryza sativa; settings: 0 = no effect, 100 = complete control, preemergence
How it was run: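 Evaluation is visual, comparing treated with control plants on a scale where 0 means no effect and 100 means full control. Treatments were preemergence, or postemergence on seedlings 2–18 cm tall, and held 13–15 days in the greenhouse.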

[4] = system: small flower umbrella sedge; experiment: Test B flooded paddy test; format: in vivo, Cyperus difformis; settings: 1000 g ai/ha, scale 0 to 100 (0 no effect, 100 complete control)
How it was run: (§3)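 Visual ratings, 0 (no effect) to 100 (complete control), made versus controls after 13–15 d greenhouse. Paddy plants treated at 2-leaf stage; postemergence plants at 1- to 4-leaf stage, 2–18 cm tall.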

barnyardgrass [5] = experiment: Test C flooded paddy test; format: in vivo, Echinochloa crus-galli
How it was run: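 Greenhouse test with a 12–14 day hold after application and visual comparison with controls. Emerged plants were 1- to 4-leaf stage (2–18 cm) when sprayed postemergence, and the paddy barnyardgrass was at 2 leaves under flooded conditions. 100 = complete control.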

velvetleaf = experiment: Test B pre-/postemergence herbicide test; format: in vivo, Abutilon theophrasti; settings: for Velvetleaf plant response rating: postemergence
How it was run: as §1

barnyardgrass [6] = experiment: Test B flooded paddy test; format: in vivo, Echinochloa crus-galli; settings: 1000 g ai/ha, scale 0 to 100 (0 no effect, 100 complete control)
How it was run: as §3

ducksalad [7] = experiment: Test B flooded paddy test; format: in vivo, Heteranthera limosa; settings: 1000 g ai/ha, scale 0 to 100 (0 no effect, 100 complete control)
How it was run: as §3

barnyardgrass [8] = experiment: Test B pre-/postemergence herbicide test; format: in vivo, Echinochloa crus-galli; settings: for Barnyardgrass plant response rating: postemergence, scale 0 (no effect) to 100 (complete control)
How it was run: as §2

giant foxtail = experiment: Test B pre-/postemergence herbicide test; format: in vivo, Setaria faberi; settings: for Foxtail, Giant plant response rating: postemergence
How it was run: as §1

lambsquarters = experiment: Test B pre-/postemergence herbicide test; format: in vivo, Chenopodium album; settings: for Lambsquarters plant response rating: postemergence
How it was run: as §1

wild oat = experiment: Test B postemergence herbicide test; format: in vivo, Avena fatua; settings: postemergence
How it was run: (§4)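 Formulated test chemicals went onto postemergence plants measuring 2 to 18 cm, at one to four leaves. For the paddy assay, species had reached two leaves. Scoring took place 13–15 days later by eye, relative to untreated plants, using 0 for no effect up to 100 for full control.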

pigweed = experiment: Test B pre-/postemergence herbicide test; format: in vivo, Amaranthus retroflexus; settings: for Pigweed plant response rating: postemergence
How it was run: as §1

rice [9] = experiment: Test B flooded paddy test; format: in vivo, Oryza sativa; settings: 1000 g ai/ha, scale 0 to 100 (0 no effect, 100 complete control)
How it was run: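 After treating 2-leaf paddy plants or 2–18 cm postemergence plants (1 to 4 leaves) with formulated chemical, researchers kept them in a greenhouse for 13–15 days. Effects were judged visually versus controls: 0 indicates none, 100 total control.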

cocklebur = experiment: Test B pre-/postemergence herbicide test; format: in vivo, Xanthium strumarium; settings: for Cocklebur plant response rating: postemergence, scale 0 (no effect) to 100 (complete control)
How it was run: as §2

blackgrass = experiment: Test B postemergence herbicide test; format: in vivo, Alopecurus myosuroides; settings: postemergence, visual rating, scale 0 (no effect) to 100 (complete control)
How it was run: as §3

wheat = experiment: Test B postemergence herbicide test; format: in vivo, Triticum aestivum; set-up: key to Wheat plant response rating: 0 = no effect, 100 = complete control; settings: postemergence
How it was run: as §4

ducksalad [10] = experiment: Test C flooded paddy test; format: in vivo, Heteranthera limosa
[11] = 125 g ai/ha, 0 = no effect, 100 = complete control, preemergence
[12] = 500 g ai/ha, visual rating, 0 = no effect, 100 = complete control, preemergence
[13] = 125 g ai/ha, visual rating, scale 0 (no effect) to 100 (complete control)
[14] = 500 g ai/ha, scale 0 to 100, 0 is no effect, 100 is complete control
[15] = 125 g ai/ha, scale 0 to 100 (0 no effect, 100 complete control)
[16] = 250 g ai/ha, scale of 0 to 100, 0 is no effect, 100 is complete control
[17] = 500 g ai/ha, visual rating after 12 to 14 days, scale 0 to 100 (0 no effect, 100 complete control)

CCn1nc(C(C)(C)C)cc1C(=O)Nc1cncc(C(=O)N(C)C)c1 [Compound 258]
15: Barnyardgrass plant response rating (barnyardgrass [5]; [16]) | Ducksalad plant response rating (ducksalad [10]; 62 g ai/ha, scale 0 to 100)
50: Plant response rating, Crabgrass, Large (large crabgrass; [12]) | Pigweed plant response rating (pigweed; [13])
45: Plant response rating, Barnyardgrass (barnyardgrass [5]; [17]) | Ducksalad plant response rating (ducksalad [10]; [15])
10: Corn plant response rating (corn; [14]) | Crabgrass, Large plant response rating (0 to 100 scale) (large crabgrass; [11]) | Plant response rating, Morningglory (morningglory; [12]) | Morningglory plant response rating (morningglory; [14]) | Surinam Grass plant response rating (Surinam grass; [14]) | Blackgrass plant response rating (blackgrass; 125 g ai/ha) | Blackgrass plant response rating (blackgrass; 500 g ai/ha)
90: Plant response rating, Rice (rice [3]; 500 g ai/ha, visual rating) | Ducksalad plant response rating (ducksalad [7]) | Plant response rating, Barnyardgrass (barnyardgrass [8]; [12]) | Plant response rating, Ducksalad (ducksalad [10]; [17])
100: Plant response rating, Lambsquarters (lambsquarters; [12]) | Plant response rating, Pigweed (pigweed; [12])
60: Plant response rating, Velvetleaf (velvetleaf; [12]) | Pigweed plant response rating (pigweed; [14])
5: Rice plant response rating (rice [2]; [16])
70: Sedge, Umbrella plant response rating [1, 16] | Plant response rating, Rice (rice [2]; [17]) | Sedge, Umbrella plant response rating [4] | Barnyardgrass plant response rating (barnyardgrass [6]) | Barnyardgrass plant response rating (0 to 100 scale) (barnyardgrass [8]; [11]) | Lambsquarters plant response rating (lambsquarters; [14]) | Ducksalad plant response rating (ducksalad [10]; [16])
0: Corn plant response rating (0 to 100 scale) (corn; [11]) | Plant response rating, Corn (corn; [12]) | Corn plant response rating (corn; [13]) | Crabgrass, Large plant response rating (large crabgrass; [13]) | Crabgrass, Large plant response rating (large crabgrass; [14]) | Morningglory plant response rating (0 to 100 scale) (morningglory; [11]) | Morningglory plant response rating (morningglory; [13]) | Sedge, Umbrella plant response rating ([1]; 62 g ai/ha, scale 0 to 100) | Surinam Grass plant response rating (0 to 100 scale) (Surinam grass; [11]) | Surinam Grass plant response rating (Surinam grass; [13]) | Rice plant response rating (rice [2]; 62 g ai/ha, scale 0 to 100) | Rice plant response rating (rice [2]; [15]) | Barnyardgrass plant response rating (barnyardgrass [5]; 62 g ai/ha, scale 0 to 100 (0 no effect, 100 complete control)) | Barnyardgrass plant response rating (barnyardgrass [5]; [15]) | Velvetleaf plant response rating (0 to 100 scale) (velvetleaf; [11]) | Velvetleaf plant response rating (velvetleaf; [13]) | Velvetleaf plant response rating (velvetleaf; [14]) | Barnyardgrass plant response rating (barnyardgrass [8]; 125 g ai/ha, visual rating) | Barnyardgrass plant response rating (barnyardgrass [8]; 500 g ai/ha, visual rating) | Foxtail, Giant plant response rating (0 to 100 scale) (giant foxtail; [11]) | Foxtail, Giant plant response rating (giant foxtail; [13]) | Foxtail, Giant plant response rating (giant foxtail; [14]) | Pigweed plant response rating (0 to 100 scale) (pigweed; [11]) | Cocklebur plant response rating (0 to 100 scale) (cocklebur; [11]) | Plant response rating, Cocklebur (cocklebur; [12])
20: Sedge, Umbrella plant response rating [1, 15] | Rice plant response rating (0 to 100 scale) (rice [3]; 125 g ai/ha) | Plant response rating, Foxtail, Giant (giant foxtail; [12]) | Oat, Wild plant response rating (wild oat; [13]) | Cocklebur plant response rating (cocklebur; 125 g ai/ha, visual rating) | Wheat plant response rating (wheat; [13]) | Wheat plant response rating (wheat; [14])
30: Plant response rating, Surinam Grass (Surinam grass; [12]) | Lambsquarters plant response rating (lambsquarters; [13]) | Oat, Wild plant response rating (wild oat; [14]) | Cocklebur plant response rating (cocklebur; 500 g ai/ha, visual rating)
80: Plant response rating, Sedge, Umbrella [1, 17] | Rice plant response rating (rice [9])
